Experimental data from patent US11104689B2, “Influenza virus replication inhibitor and use thereof” (SUNSHINE LAKE PHARMA CO., LTD., priority 2017, dated 2021).
Where two headings read alike, the source gives them in different places.

Columns and labels:
[1] = test system: influenza virus (A/Weiss/43(H1N1)); assay: Cytopathic effect assay (CPE assay), antiviral activity; assay type: cell-based; details: MDCK cells, CPE inhibition, CCK-8, read-out: EC50 against influenza virus (A/Weiss/43(H1N1)) in vitro
[2] = Cytotoxicity test group of the CPE assay (no virus added, CCK-8 kit); assay type: cell-based; details: dog, MDCK cells
Method: (§1) Experimental Procedures: MDCK cells were seeded in a 384-well plate with 2000 cells per wells, which were incubated overnight at 37° C., 5% CO2; The culture medium was changed to the fresh culture solution containing different concentrations of the compound and virus H1N1 A/Weiss/43 at a multiplicity of infection to yield 80-95% CPE on the second day. The test compound was serially diluted from the highest concentration of 100 nM in 1:3 dilutions to give 8 concentrations: 100 nM, 33.33 nM, 11.11 nM, 3.70 nM, 1.23 nM, 0.41 nM, 0.14 nM, 0.05 nM. At the same time, a non-medicated virus control group and a non-medicated cell control group free of virus were set up. No virus was added in the cytotoxicity test group but medium was added for replacement. Each group was set in duplicate, and incubated at 37° C. in 5% CO2. The cell activity was measured according to the CCK-8 kit (source: Shanghai Liji Biotechnology Co., Ltd. #D3100L4057) and the data would be used to calculate the antiviral and cytotoxicity of the compound. Data were analyzed by GraphPad Prism, CPE inhibition rate was calculated, and the EC50 was obtained according to the fitted curve. CPE inhibition rate=(absorbance of dosing hole-absorbance of virus control well)/(absorbance of cell control well-virus control well)×100%

[3] = set-up: species or system Beagle dogs; details: male, beagle, dog, in vivo
Method: Pharmacokinetic studies of compounds of the invention in healthy adult male SD rats, dogs or monkeys were evaluated. The compound of the present invention was administered in form of a solution containing 10% DMSO+10% Kolliphor HS 15+80% physiological saline solution. For intravenous (iv) administration, animals were given with a dose of 0.2 or 1 mg/kg and blood was taken at 0.083, 0.25, 0.5, 1.0, 2.0, 5.0, 7.0, and 24 hours (0.3 mL) and centrifugated for 10 minutes at 3,000 or 4,000 rpm. For oral (po) administration, animals were given with a dose of 1 or 5 mg/kg, taken at 0.25, 0.5, 1.0, 2.0, 5.0, 7.0, and 24 hours (0.3 mL) and centrifugated at 3,000 or 4,000 rpm for 10 minutes. The plasma solution was collected and stored at −20° C. or −70° C. until the LC/MS/MS analysis was performed.

MDCK cells = assay: Cytotoxicity test group of the CPE assay (no virus added, CCK-8 kit); assay type: cell-based
Method: as §1

Question: For `O=C1c2c(O)c(=O)ccn2N([C@H]2c3ccc(F)cc3-c3ccsc3-c3ccccc32)[C@@H]2COCCN12` (mixture of isomers) [Example 37, The mixture of (R)-12-((S)-5-fluoro-8H-dibenzo[3,4:6,7]cyclohepta[1,2-b]thiophen-8-yl)-7-hydroxy-3,4,12,12a-tetrahydro-1H-[1,4]oxazino[3,4-c]pyrido[2,1-f][1,2,4]triazine-6,8-dione and (S)-12-((R)-5-fluoro-8H-dibenzo [3,4:6,7]cyclohepta[1,2-b]thiophen-8-yl)-7-hydroxy-3,4,12,12a-tetrahydro-1H-[1,4]oxazino [3,4-c]pyrido [2,1-f][1,2,4]triazine-6,8-dione], which EC50 ([1]; H1N1) is on record?
Answer: 14.9 nM

Question: What about the CC50 [2] of the same molecule?
Answer: 104 µM

Question: What does the source list for `O=C1c2c(O)c(=O)ccn2N([C@H]2c3ccccc3-c3ccsc3-c3ccccc32)[C@@H]2COCCN12` (racemic) [Example 2, (R)-12-((S)-8H-dibenzo [3,4:6,7]cycloheptyl [1,2-b]thiophen-8-yl)-7-hydroxy-3,4,12,12a-tetrahydro-1H-[1,4] oxazino[3,4-c] pyrido [2,1-f] [1,2,4] triazine-6,8-dione and (S)-12-((R)-8H-dibenzo [3,4:6,7]cycloheptyl [1,2-b]thiophen-8-yl)-7-hydroxy-3,4,12,12a-tetrahydro-1H-[1,4] oxazino[3,4-c] pyrido [2,1-f][1,2,4] triazine-6,8-dione]?
Answer: EC50 ([1]; H1N1): 22.8 nM; CC50 [2]: > 100 µM

Question: With `O=C1c2c(O)c(=O)ccn2N([C@H]2c3ccccc3-c3ccsc3-c3ccccc32)[C@H]2COCCN12` (racemic) [Example 3, (S)-12-((S)-8H-dibenzo [3,4:6,7]cycloheptyl [1,2-b]thiophen-8-yl)-7-hydroxy-3,4,12,12a-tetrahydro-1H-[1,4] oxazino [3,4-c] pyrido [2,1-f] [1,2,4] triazine-6,8-dione and (R)-12-((R)-8H-dibenzo [3,4:6,7]cycloheptyl [1,2-b]thiophen-8-yl)-7-hydroxy-3,4,12,12a-tetrahydro-1H-[1,4] oxazino [3,4-c] pyrido [2,1-f][1,2,4] triazine-6,8-dione] as the molecule, how does the EC50 ([1]; H1N1) read?
Answer: 23.5 nM

Question: And the CC50 [2]?
Answer: > 100 µM

Question: Which CC50 [2] does the source give for `O=C1c2c(O)c(=O)ccn2N([C@H]2c3ccc(F)c(F)c3CSc3c2ccc2ccccc32)[C@@H]2COCCN12` (racemic) [Example 7, (R)-12-((S)-10,11-difluoro-7,12-dihydrobenzo [e]naphtho [1,2-b]thiepin-7-yl)-7-hydroxy-3,4,12,12a-tetrahydro-11H-[1,4] oxazino [3,4-c] pyrido [2,1-f] [1,2,4] triazine-6,8-dione and (S)-12-((R)-10,11-difluoro-7,12-dihydrobenzo[e]naphtho[1,2-b]thiepin-7-yl)-7-hydroxy-3,4,12,12a-tetrahydro-1H-[1,4]oxazino[3,4-c]pyrido[2,1-f][1,2,4]triazine-6,8-dione] here?
Answer: > 100 µM

Question: With `COc1cccc2c1-c1ccsc1-c1ccccc1C2N1[C@@H]2COCCN2C(=O)c2c(O)c(=O)ccn21` (stereo in doubt) [Example 19, (12aR)-7-hydroxy-12-((8R)-4-methoxy-8H-dibenzo [3,4:6,7]cyclohept[1,2-b]thiophen-8-yl)-3,4,12,12a-tetrahydro-1H-[1,4]oxazino[3,4-c]pyrido[2,1-f] [1,2,4]triazine-6,8-dione] as the molecule, how does the EC50 ([1]; H1N1) read?
Answer: 34.1 nM

Question: What about the CC50 [2] of the same molecule?
Answer: > 100 µM

Question: With `O=C1c2c(O)c(=O)ccn2N([C@H]2c3ccc(F)cc3-c3ccsc3-c3cc(F)ccc32)[C@@H]2COCCN12` [Compound (17-1), (R)-12-((S)-5,11-difluoro-8H-dibenzo[3,4:6,7]cyclohepta[1,2-b]thiophen-8-yl)-7-hydroxy-3,4,12,12a-tetrahydro-1H-[1,4]oxazino[3,4-c]pyrido[2,1-f][1,2,4]triazine-6,8-dione] as the molecule, how does the EC50 ([1]; H1N1) read?
Answer: 18.8 nM

Question: What about the CC50 [2] of the same molecule?
Answer: 77.5 µM

Question: For `O=C1c2c(O)c(=O)ccn2N([C@H]2c3ccc(F)cc3-c3ccsc3-c3ccccc32)[C@@H]2COCCN12` [Compound (20-1), (R)-12-((S)-5-fluoro-8H-dibenzo [3,4:6,7]cyclohept[1,2-b]thiophen-8-yl)-7-hydroxy-3,4,12,12a-tetrahydro-1H-[1,4]oxazino[3,4-c]pyrido[2,1-f][1,2,4]triazine-6,8-diketone], which EC50 [1] is on record?
Answer: 4.9 nM

Question: Which EC50 ([1]; H1N1) does the source give for `O=C1c2c(O)c(=O)ccn2N([C@@H]2c3ccccc3-c3sccc3-c3c(F)cccc32)[C@@H]2COCCN12` [Compound (21-2), (12aR)-12-((8S)-4-fluoro-8H-dibenzo [3,4:6,7]cyclohept[1,2-b]thiophen-8-yl)-7-hydroxy-3,4,12,12a-tetrahydro-1H-[1,4]oxazino[3,4-c]pyrido[2,1-f] [1,2,4]triazine-6,8-dione] here?
Answer: 18.9 nM

Question: For `O=C1c2c(O)c(=O)ccn2N(C2c3ccccc3SCc3c2ccc2ccccc32)C2COCCN12` (stereo not drawn) [Example 5, 12-(7,13-Dihydrobenzo [b]naphtho [2,1-e]thiepin-7-yl)-7-hydroxy-3,4,12,12a-tetrahydro-1H-[1,4] oxazino [3,4-c] pyrido [2,1-f] [1,2,4]triazine-6,8-dione], which CC50 [2] is on record?
Answer: > 100 µM

Question: With `O=C1c2c(O)c(=O)ccn2N(C2c3ccccc3-c3ccsc3-c3c2ccc(F)c3F)C2COCCN12` (stereo not drawn) [Example 11, 12-(11,12-Difluoro-8H-dibenzo [3,4:6,7]cycloheptyl [1,2-b]thiophen-8-yl)-7-Hydroxy-3,4,12, 12a-tetrahydro-1H-[1,4]oxazino[3,4-c]pyrido[2,1-f][1,2,4]triazine-6,8-dione] as the molecule, how does the EC50 ([1]; H1N1) read?
Answer: 48.7 nM

Question: For `O=C1c2c(O)c(=O)ccn2N(C2c3ccccc3-c3cc(Cl)sc3-c3ccccc32)[C@@H]2COCCN12` (stereo partly drawn) [Example 15, (12aR)-12-(2-chloro-8H-dibenzo [3,4:6,7]cyclohept[1,2-b]thiophen-8-yl)-7-hydroxy-3,4,12,12a-tetrahydro-1H-[1,4] oxazino [3,4-c] pyrido [2,1-f] [1,2,4]triazine-6,8-dione], which CC50 [2] is on record?
Answer: 39.4 µM

Question: Which results are given for `COC(=O)OCOc1c2n(ccc1=O)N([C@H]1c3ccc(F)cc3-c3ccsc3-c3ccccc31)[C@@H]1COCCN1C2=O` [Example 28, methyl (((R)-12-((S)-5-fluoro-8H-dibenzo [3,4:6,7]cyclohept[1,2-b]thiophen-8-yl)-6,8-dioxo 3,4,6,8,12,12a-hexahydro-1H-[1,4]oxazino [3,4-c]pyrido [2,1-f] [1,2, 4]triazin-7-yl)oxy)methyl carbonate]?
Answer: Conversion in animals [3]: converted to the compound of Example 21 (21-1) in animals; AUCINF ([3]; iv, 0.2 mg/kg): 1030 ng·h/mL; AUClast ([3]; iv, 0.2 mg/kg): 996 ng·h/mL; Cmax ([3]; iv, 0.2 mg/kg): 144 ng/mL; clearance ([3]; iv, 0.2 mg/kg): 3.22 mL/min/kg; t1/2 ([3]; iv, 0.2 mg/kg): 4.91 h; AUCINF ([3]; po, 1 mg/kg): 2580 ng·h/mL; AUClast ([3]; po, 1 mg/kg): 2430 ng·h/mL; Cmax ([3]; po, 1 mg/kg): 311 ng/mL; F ([3]; po, 1 mg/kg): 57.6%; t1/2 ([3]; po, 1 mg/kg): 5.72 h

Question: For `O=C1c2c(O)c(=O)ccn2N([C@H]2c3ccccc3-c3cnoc3-c3ccccc32)[C@@H]2COCCN12` [Example 38, 12-(8H-Dibenzo [3,4:6,7]cyclohepta[1,2-d]isoxazol-8-yl)-7-hydroxy-3,4,12,12a-tetrahydro-1H-[1,4]oxazino[3,4-c]pyrido[2,1-f] [1,2,4]triazin-6,8-dione], which EC50 ([1]; H1N1) is on record?
Answer: 38 nM

Question: And the CC50 [2]?
Answer: > 100 µM

Question: For “(12aR)-12-((8R)-4,5-difluoro-2-phenyl-8H-dibenzo[3,4:6,7]cyclohept[1,2-b]thiophen-8-yl)-7-hydroxy-3,4,12,12a-tetrahydro-1H-[1,4]oxazino[3,4-c]pyrido[2,1-f] [1,2,4] triazine-6,8-dione and (12aS)-12-((8S)-4,5-difluoro-2-phenyl-8H-dibenzo[3,4:6,7]cyclohept[1,2-b]thiophen-8-yl)-7-hydroxy-3,4,12,12a-tetrahydro-1H-[1,4] oxazino [3,4-c] pyrido [2,1-f][1,2,4] triazine-6,8-dione [Example 12]”, which EC50 [1] is on record?
Answer: 49.3 nM

Question: What about the CC50 (MDCK cells) of the same molecule?
Answer: 112 µM

Question: What does the source list for “The mixture of (12aR)-12-((8R)-4-fluoro-8H-dibenzo [3,4:6,7]cyclohepta[1,2-b]thiophen-8-yl)-7-hydroxy-3,4,12,12a-tetrahydro-1H-[1,4]oxazino [3,4-c] pyrido [2,1-f] [1,2,4]triazine-6,8-dione and (12aR)-12-((8S)-4-fluoro-8H-dibenzo [3,4:6,7] cyclohept[1,2-b]thiophen-8-yl)-7-hydroxy-3,4,12,12a-tetrahydro-1H-[1,4]oxazino [3,4-c] pyrido [2,1-f] [1,2,4]triazine-6,8-dione [Example 36]”?
Answer: EC50 [1]: 9.87 nM; CC50 (MDCK cells): 36 µM
